{
  "source": "patent US20260335314A1",
  "about": "“CRYSTALLINE SALTS OR AMORPHOUS FORMS OF 2-((1H-PYRAZOL-3-YL)METHYL)-6-((6-AMINOPYRIDIN-2-YL)METHYL)-4-METHYL-4,6-DIHYDRO -5H-THIAZOLO[5',4':4,5]PYRROLO[2,3-D]PYRIDAZIN-5-ONE” (Agios Pharmaceuticals, Inc., priority 2023, published 2026)",
  "key": {"[1]": {"test": "Physicochemical properties of Form A (summary)"}, "[2]": {"test": "Stability study of Form A (storage)", "assay_type": "physicochemical"}, "[3]": {"test": "Pharmacokinetics / absolute bioavailability in male Sprague Dawley rats", "assay_type": "in vivo", "protocol": "Twenty-one (21) male Sprague Dawley rats (purchased from Shanghai Laboratory Animal Center Co., Ltd., Shanghai, China) were randomized into 7 groups (3 animals per group). The animals fasted overnight, the forms of Compound 1 shown in Table 7 were administered by oral gavage, and the animals were fed 4 hours post-dose.\nBlood was serially collected from each animal at 0 (pre-dose), 0.083, 0.25, 0.5, 1, 2, 4, 8, and 24 h post-dose. For each collection, the animal was restrained manually, and approximately 150 μL of blood sample was collected via the tail vein into K2EDTA tubes. Plasma samples were stored at approximately −70° C. until analysis.\nTo enable the calculation of absolute bioavailability, Compound 1 was formulated as a solution in 10% N-methyl-2-pyrrolidone, 10% Solutol HS 15, and 80% saline and administered at 1 mg/kg as intravenous (IV) bolus dose to a separate group of male Sprague Dawley rats, and blood samples were collected at similar timepoints to those shown above. Further, plasma samples were obtained from the collected samples and stored at approximately −70° C. until analysis.\nThe concentration of Compound 1 in the plasma samples was determined by LC-MS/MS analysis.\nA 20 μL aliquot of each plasma sample was mixed with 200 μL of acetonitrile containing glipizide as an internal standard (40 ng/mL). The resulting mixture was vortexed at 1500 rpm for 2 min and centrifuged at 5800 rpm for 10 min. A 1 μL sample from the supernatant was injected into LC-MS/MS.\nLC-MS/MS analysis was conducted on a UPLC/MS-MS (API 6500+) system under the conditions outlined in Table 8\nThe absolute bioavailability of each form of Compound 1 was determined by dividing the AUCinf of the form in question by the AUCinf obtained historical data by IV administration of Compound 1."}, "pH solubility in buffers": {"test": "pH solubility in buffers", "assay_type": "physicochemical", "conditions": "for pH (24 h): pH of solution at 24 h", "protocol": "(§1) Solubility samples were prepared by weighing about 10 mg of each salt and adding 1 mL of media and vortexed briefly to obtain suspensions. […] For such instances, the solubility is calculated as greater than (>).\n(§2) The sample vials were capped and wrapped in aluminum foil, and placed on a shaker at 37° C. The shaker was set at about 100 rpm and vials were removed at specified time points. The vials were observed, and the supernatants were transferred to Eppendorf tubes and centrifuged at 3K for 10 minutes. The clear supernatants were transferred to HPLC vials. The samples were diluted prior to HPLC analysis using the dilution media by 2× or used without dilution. pH was measured of the 24 hour timepoint after centrifugation using a micro pH probe.\n(§3) • pH 2 buffer USP: Mixed 50 mL of 0.2M potassium chloride and 13 mL 0.2M HCl, diluted to 200 mL with water. • pH 4.5 buffer USP: 5.44 g of potassium dihydrogen phosphate was diluted to 1000 mL with water. • pH 6.8 buffer USP: Mixed 50 mL of 0.2M potassium phosphate and 22.4 mL 0.2M sodium hydroxide. Diluted with water to 200 mL. • SGF: 2.0109 g of NaCl was dissolved in water, added 7 mL of conc. HCl and diluted to 1 L. • FeSSIF: 4.0321 g of NaOH and 11.8726 g of NaCl were dissolved in water, added 8.65 mL of glacial acetic acid, adjusted the pH to 5.0 and diluted to 1 L. • FaSSIF: 0.4247 g of NaOH, 3.9548 g of sodium phosphate monobasic monohydrate and 6.1900 g of NaCl were dissolved in water, adjusted the pH to 6.5 and diluted to 1 L.\nAt each time point, the solution was analyzed by HPLC and residue was vacuum dried and analyzed by XRPD. The pH of the solution was measured at 24 hours."}, "[4]": {"test": "Kinetic solubility in biorelevant media", "assay_type": "physicochemical", "protocol": "as §1, §2\nas §3, with “adjusted the pH to 5.0 and diluted to 1 L. • FaSSIF:” left out\nKinetic solubility was determined in biorelevant media. At each time point, the solution was analyzed by HPLC. The solid residue was analyzed by XRPD at selected time points. The pH of the solution was measured at 24 hours."}, "[5]": {"test": "Dynamic vapor sorption (moisture uptake)", "assay_type": "physicochemical", "conditions": "25° C., from 5% to 95% relative humidity", "protocol": "Dynamic Vapor Sorption (DVS) was carried out using a TA Instruments Q5000 Dynamic Vapor Sorption analyzer. The instrument was calibrated with standard weights and a sodium bromide standard for humidity. Approximately 10-25 mg of sample was loaded into a metal-coated quartz pan for analysis. […] The movement from one step to the next occurred either after satisfying the equilibrium criterion of 0.01% weight change or, if the equilibrium criterion was not met, after one hour. The percent weight change values were calculated using Microsoft Excel®."}},
  "data": [
    {"smiles": "Cn1c2nc(Cc3cc[nH]n3)sc2c2cnn(Cc3cccc(N)n3)c(=O)c21", "note": "[Form A]", "values": [
      {"measurement": "stability in solvent systems", "setting": "[1]; especially containing water", "result": "stability in multiple solvent systems"},
      {"measurement": "stability in humidity", "setting": "[1]; relative humidity", "result": "at least 20 % RH"},
      {"measurement": "particle size", "setting": "[1]; under microscope", "result": "below 20 μm"},
      {"measurement": "stability in humidity (water activity)", "setting": "[1]; water activity", "result": "≥ 0.2"},
      {"measurement": "degradation", "setting": "[2]; one month under 25±2° C./60±5% RH", "result": "No degradation was observed"},
      {"measurement": "degradation", "setting": "[2]; one month under 40±2° C./75±5% RH", "result": "No degradation was observed"},
      {"measurement": "absolute bioavailability, comparison with other forms", "setting": "[3]; oral gavage, 10 mg/kg", "result": "higher than the measured bioavailability of the other forms of Compound 1"},
      {"measurement": "AUCinf", "setting": "[3]; oral gavage, 10 mg/kg, fasted overnight, plasma", "result": 9426, "unit": "ng·h/mL"},
      {"measurement": "Absolute % F", "setting": "[3]; oral gavage, 10 mg/kg, vs historical IV AUCinf, 10 mg/kg", "result": 60, "unit": "%"},
      {"measurement": "plasma concentration-time profiles and pharmacokinetic parameters", "setting": "[3]; summary statement", "result": "favorable plasma concentration-time profiles and pharmacokinetic parameters"},
      {"measurement": "solubility at 2 h", "setting": "pH solubility in buffers; 0.1 n hcl, 2 h, 37 °C", "result": 1970, "unit": "µg/mL"},
      {"measurement": "solubility at 24 h", "setting": "pH solubility in buffers; 0.1 n hcl, 24 h, 37 °C", "result": 1480, "unit": "µg/mL"},
      {"measurement": "solubility", "setting": "pH solubility in buffers; pH 2 (USP), 2 h, 37 °C, 120 min", "result": 400, "unit": "µg/mL"},
      {"measurement": "solubility", "setting": "pH solubility in buffers; pH 2 (USP), 24 h, 37 °C, 1440 min", "result": 300, "unit": "µg/mL"},
      {"measurement": "pH (24 h)", "setting": "pH solubility in buffers; pH 2 (USP)", "result": 2.06},
      {"measurement": "solubility", "setting": "pH solubility in buffers; pH 4.5 (USP), 2 h, 37 °C, 120 min", "result": 60, "unit": "µg/mL"},
      {"measurement": "solubility", "setting": "pH solubility in buffers; pH 4.5 (USP), 24 h, 37 °C, 1440 min", "result": 50, "unit": "µg/mL"},
      {"measurement": "pH (24 h)", "setting": "pH solubility in buffers; pH 4.5 (USP)", "result": 4.32},
      {"measurement": "solubility", "setting": "pH solubility in buffers; pH 6.8 (USP), 2 h, 37 °C, 120 min", "result": 40, "unit": "µg/mL"},
      {"measurement": "solubility", "setting": "pH solubility in buffers; pH 6.8 (USP), 24 h, 37 °C, 1440 min", "result": 70, "unit": "µg/mL"},
      {"measurement": "pH (24 h)", "setting": "pH solubility in buffers; pH 6.8 (USP)", "result": 5.63},
      {"measurement": "solubility", "setting": "[4]; FaSSIF pH 6.5, 10 min, 37 °C, 10 min", "result": 120, "unit": "µg/mL"},
      {"measurement": "solubility", "setting": "[4]; FaSSIF pH 6.5, 30 min, 37 °C, 30 min", "result": 120, "unit": "µg/mL"},
      {"measurement": "solubility", "setting": "[4]; FaSSIF pH 6.5, 1 h, 37 °C, 60 min", "result": 110, "unit": "µg/mL"},
      {"measurement": "solubility", "setting": "[4]; FaSSIF pH 6.5, 2 h, 37 °C, 120 min", "result": 160, "unit": "µg/mL"},
      {"measurement": "solubility", "setting": "[4]; FaSSIF pH 6.5, 4 h, 37 °C, 240 min", "result": 170, "unit": "µg/mL"},
      {"measurement": "solubility", "setting": "[4]; FaSSIF pH 6.5, 24 h, 37 °C, 1440 min", "result": 180, "unit": "µg/mL"},
      {"measurement": "pH (24 h)", "setting": "[4]; FaSSIF pH 6.5, pH of solution at 24 h", "result": 3.91},
      {"measurement": "solubility", "setting": "[4]; FeSSIF pH 5.0, 10 min, 37 °C, 10 min", "result": 550, "unit": "µg/mL"},
      {"measurement": "solubility", "setting": "[4]; FeSSIF pH 5.0, 30 min, 37 °C, 30 min", "result": 100, "unit": "µg/mL"},
      {"measurement": "solubility", "setting": "[4]; FeSSIF pH 5.0, 1 h, 37 °C, 60 min", "result": 230, "unit": "µg/mL"},
      {"measurement": "solubility", "setting": "[4]; FeSSIF pH 5.0, 2 h, 37 °C, 120 min", "result": 70, "unit": "µg/mL"},
      {"measurement": "solubility", "setting": "[4]; FeSSIF pH 5.0, 4 h, 37 °C, 240 min", "result": 70, "unit": "µg/mL"},
      {"measurement": "solubility", "setting": "[4]; FeSSIF pH 5.0, 24 h, 37 °C, 1440 min", "result": 30, "unit": "µg/mL"},
      {"measurement": "pH (24 h)", "setting": "[4]; FeSSIF pH 5.0, pH of solution at 24 h", "result": 5.74},
      {"measurement": "pH (24 h)", "setting": "[4]; SGF pH 1.2, pH of solution at 24 h", "result": 0.87},
      {"measurement": "solubility at 10 min", "setting": "[4]; sgf, pH 1.2, SGF pH 1.2, 10 min, 37 °C", "result": 2850, "unit": "µg/mL"},
      {"measurement": "solubility at 0.5 h", "setting": "[4]; sgf, pH 1.2, SGF pH 1.2, 30 min, 37 °C", "result": 4960, "unit": "µg/mL"},
      {"measurement": "solubility at 1 h", "setting": "[4]; sgf, pH 1.2, SGF pH 1.2, 1 h, 37 °C", "result": 2840, "unit": "µg/mL"},
      {"measurement": "solubility at 2 h", "setting": "[4]; sgf, pH 1.2, SGF pH 1.2, 2 h, 37 °C", "result": 3240, "unit": "µg/mL"},
      {"measurement": "solubility at 4 h", "setting": "[4]; sgf, pH 1.2, SGF pH 1.2, 4 h, 37 °C", "result": 3770, "unit": "µg/mL"},
      {"measurement": "solubility at 24 h", "setting": "[4]; sgf, pH 1.2, SGF pH 1.2, 24 h, 37 °C", "result": 2880, "unit": "µg/mL"},
      {"measurement": "moisture uptake (DVS)", "setting": "[5]", "result": "about 0.08%"}
    ]}
  ]
}
